The conditions of data set [1]: alcohol trials, naltrexone 50 mg/day; cited from earlier work.
A further data set deals with alcoholics. In words: Double-blind placebo-controlled trial of ondansetron in alcoholics randomized by 5'-HTTLPR genotype: self-reported drinking. The class given is in vivo, human. The text has this: We randomized 283 alcoholics by genotype in the 5′-regulatory region of the 5-HTT gene (LL/LS/SS) in a controlled double-blind trial. […] We genotyped another functional single nucleotide polymorphism (T/G), rs1042173, in the 3′-untranslated region.
Participants. Details of the subject population were similar to those in a previously published study (22). Briefly, our 283 enrollees (73.7% male; 84.4% White, and 15.6% Hispanic) had alcohol dependence but no axis I diagnosis other than nicotine dependence according to the Diagnostic and Statistical Manual of Mental Disorders, 4th edition (23); were aged 20 to 78 years, and scored >8 on the Alcohol Use Disorders Identification Test (24), which assessed the severity of alcohol-related problems.
All subjects provided informed consent to participate.
Subjects were randomized using an urn (25) procedure after the screening visit to either treatment or placebo under each of three different genotypes (LL, LS, or SS alleles of the 5′-HTTLPR) strata. Further characterization of the cohort for rs1042173 of 3′-UTR alleles (i.e., TT/TG/GG) was done post-randomization.
Study procedures. Subjects were enrolled in the study whilst they were still drinking (i.e., without a period of abstinence). At enrollment, we collected self-reported drinking based on the timeline follow-back method over the past 90 days (26), genotyped, and collected white blood cells (WBCs) for expression studies.
From weeks 1 to 12, subjects received weekly assessment of drinking using the timeline follow-back method, adverse events using the Systematic Assessment for Treatment Emergent Events (28), alcohol withdrawal using the revised Clinical Institute Withdrawal Assessment for Alcohol scale (17), concomitant medication use, and pill count.
All subjects received weekly standardized, manual-driven (29, 30) cognitive behavioral therapy in groups of up to eight subjects as their psychosocial treatment. This comprised an integration of cognitive behavioral and social learning theory that enables alcoholic subjects to achieve and maintain abstinence by enhancing their ability to manage high-risk situations, which can trigger alcohol-seeking behavior (31, 32).
Genetics testing. DNA was extracted from the blood of each subject at baseline with a Gentra Puregene® kit (QIAGEN Inc., Valencia, Calif.). The 5′-HTTLPR L/S alleles were determined as described earlier (2, 33) with custom-made primers. The alleles of SNP rs1042173 were genotyped with pre-made TaqMan® genotyping assays (Applied Biosystems, Foster City, Calif.) as reported previously (10).

For data set [2] the following is noted: cited from earlier work; for effect on binge eating, in words: human, in vivo.
For data set [3] the following is noted: cited from earlier work.
Where [4] appears, read: LL genotype, ondansetron (4 μg/kg twice daily, 11 weeks) vs. placebo, averaged across treatment.
Setting [5] is: ondansetron LL vs. all other genotype and treatment groups combined.
[6] abbreviates: ondansetron LL/TT vs. all other genotype and treatment groups combined.
The mark [7] stands for this setting: within ondansetron recipients, LL vs. LS/SS.

Structures can show the parent of a compound that is named as a salt.

In the case of `O=C1CC[C@@]2(O)[C@H]3Cc4ccc(O)c5c4[C@@]2(CCN3CC2CC2)[C@H]1O5` [naltrexone, 17-(Cyclopropylmethyl)-4,5a-epoxy-3,14-dihydroxymorphinan-6-one hydrochloride], the “individuals unable to tolerate the dose” value in data set [1] was “about 15%”.
For `Cc1nccn1CC1CCc2c(c3ccccc3n2C)C1=O` (stereo not drawn) [ondansetron, 9-methyl-3-[(2-methyl-1H-imidazol-1-yl)methyl]-1,2,3,9-tetrahydrocarbazol-4-one], the “drinks/drinking day (DDD), difference” value with alcoholics (setting [4]) was −1.62; in the data set with alcoholics (setting [5]), −1.45; with alcoholics (setting [6]) it was −2.63; in the data set with alcoholics (setting [7]), −1.53. In addition, the “percentage of days abstinent (PDA), difference” value in the data set on alcoholics (setting [4]) is recorded as 11.27%; in the data set with alcoholics (setting [5]) it was 9.65%; with alcoholics (setting [6]), 16.99%; in the data set on alcoholics (setting [7]), 9.73%. For the same compound, in the data set on alcoholics (LL or LL/TT genotype), the “response by age of onset, in words” value is given as “responded to ondansetron irrespective of age of onset”. For the same compound, in the data set with alcoholics (LL subjects, TT subjects), the “effect on drinks/drinking day, in words” value was “reduces drinks/drinking day”. In addition, the “response to treatment by rs1042173 genotype, in words” value with alcoholics (alcohol-dependent subjects, TT vs. TG/GG genotype) is on record as “respond better”. For the same compound, in the data set with alcoholics (alcoholics with LL genotype vs. LS/SS), the “reduction in severity of drinking by 5'-HTTLPR genotype, in words” value is recorded as “significantly greater reduction in the severity of drinking”. The “effect on binge eating, in words” value in data set [2] is on record as “reduce binge eating”.
For `O=C1NC(=O)C(c2ccccc2)(c2ccccc2)N1` [phenyloin], in data set [2], the “effect on binge eating, in words” value is “reduced binge eating”.
Consider `CC1(C)O[C@@H]2[C@@H](CO[C@@]3(COS(N)(=O)=O)OC(C)(C)O[C@@H]23)O1` [topiramate, 2,3:4,5-Bis-O-(1-methylethylidene)-beta-D-fructopyranose sulfamate], for which the “cognitive impairment, individuals reporting” value in data set [3] (general population) is given as 2.4%. The “occurrence rate of cognitive impairment” value in data set [3] (substance abuse field) is on record as “about 18.7%”. For the same compound, the “effect on appetite and weight, in words” value in data set [2] (controlled trials in patients with epilepsy) was “suppression of appetite and weight loss”.

Values taken from patent US20120115149A1, “SEROTONIN TRANSPORTER GENE AND TREATMENT OF ALCOHOLISM” (University of Virginia Patent Foundation, priority 2009, published 2012).
